Data as given in ChEMBL document CHEMBL4359918, “Discovery of tissue selective liver X receptor agonists for the treatment of atherosclerosis without causing hepatic lipogenesis” (Eur J Med Chem, 2019).
Active and inactive are the calls of the source. No cut-off for these calls is given here.

Key:
HepG2 [1] = assay: Effect on TG accumulation in human HepG2 cells at 10 uM incubated for 24 hrs; assay type: ADME, cell-based; conditions: hepg2, 24 h
RAW264.7 [2] = assay: Anti-atherosclerotic activity in mouse RAW264.7 cells assessed as inhibition of ox-LDL induced lipid accumulation at 10 uM incubated for 48 hrs by ORO staining based microscopic analysis; assay type: functional, cell-based
3T3-L1 [3] = assay: Anti-adipogenic activity in mouse 3T3L1 preadipocytes assessed as decrease in lipid accumulation by Oil Red O staining-based microscopic analysis; assay type: functional, cell-based
[4] = Selectivity index, ratio of compound effect for agonist activity at human LXRalpha to compound effect for agonist activity at […]
Mus musculus = species on record: Mus musculus; assay: Agonist activity at LXR in C57BL/6 mouse PBMC assessed as increase in ABCA1 mRNA expression at 10 uM incubated for 48 hrs by qPCR analysis
3T3-L1 [5] = assay: Cytotoxicity against mouse 3T3L1 preadipocytes assessed as reduction in cell viability at 2 to 50 uM incubated for 24 hrs by MTT assay; assay type: cell-based; conditions: 3t3-l1, 24 h
RAW264.7 [6] = assay: Agonist activity at LXR in mouse RAW264.7 cells assessed as increase in ABCA1 mRNA expression at 10 uM incubated for 48 hrs by qPCR analysis; assay type: cell-based
[7] = Agonist activity at LXR in mouse 3T3L1 preadipocytes assessed as increase in ABCA1 mRNA expression at 10 uM by qPCR analysis; assay type: cell-based
HepG2 [8] = assay: Lipid lowering activity in human HepG2 cells assessed as decrease in OA-induced TG accumulation at 10 uM incubated for 24 hrs; assay type: functional, cell-based
[9] = biological target: T1, Oxysterols receptor LXR-beta (Rattus norvegicus) (UniProt Q62755); assay: Agonist activity at rat LXRbeta transfected in HEK293T cells at 10 uM incubated for 20 hrs by luciferase reporter gene assay relative to control; assay type: cell-based
T1 sequence (whole entry): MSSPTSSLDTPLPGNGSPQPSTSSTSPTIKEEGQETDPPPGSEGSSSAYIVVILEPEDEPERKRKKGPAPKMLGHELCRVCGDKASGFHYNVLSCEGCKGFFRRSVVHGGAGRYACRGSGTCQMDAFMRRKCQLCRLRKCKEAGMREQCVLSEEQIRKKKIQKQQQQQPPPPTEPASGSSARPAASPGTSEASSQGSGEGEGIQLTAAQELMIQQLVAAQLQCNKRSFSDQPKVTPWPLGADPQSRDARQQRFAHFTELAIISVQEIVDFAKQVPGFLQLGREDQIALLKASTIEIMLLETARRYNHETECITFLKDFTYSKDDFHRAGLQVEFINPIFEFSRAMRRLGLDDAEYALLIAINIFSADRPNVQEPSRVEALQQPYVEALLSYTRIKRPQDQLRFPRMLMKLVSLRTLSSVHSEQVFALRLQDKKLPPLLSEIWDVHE

[10] = biological target: T2, Oxysterols receptor LXR-alpha (Homo sapiens) (UniProt Q13133); assay: Agonist activity at human LXRalpha transfected in HEK293T cells at 10 uM incubated for 20 hrs in presence of LXR antagonist SR9243 by luciferase reporter gene assay relative to control; assay type: cell-based
T2 sequence (whole entry): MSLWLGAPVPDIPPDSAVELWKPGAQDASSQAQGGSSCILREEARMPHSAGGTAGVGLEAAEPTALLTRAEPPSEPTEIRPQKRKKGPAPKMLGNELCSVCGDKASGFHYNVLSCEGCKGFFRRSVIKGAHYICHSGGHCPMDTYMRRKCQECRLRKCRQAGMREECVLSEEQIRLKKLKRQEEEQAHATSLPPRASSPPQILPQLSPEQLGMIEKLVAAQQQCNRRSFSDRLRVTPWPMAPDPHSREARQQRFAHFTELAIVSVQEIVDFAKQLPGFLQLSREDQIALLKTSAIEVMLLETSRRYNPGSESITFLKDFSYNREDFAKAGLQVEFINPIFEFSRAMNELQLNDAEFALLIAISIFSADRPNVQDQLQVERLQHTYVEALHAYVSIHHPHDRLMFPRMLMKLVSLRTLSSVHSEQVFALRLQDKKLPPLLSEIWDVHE

[11] = biological target: T3, LXRalpha (Oxysterols receptor LXR-alpha) (Homo sapiens, UniProt Q13133); assay: Agonist activity at human LXRalpha transfected in HEK293T cells at 10 uM incubated for 20 hrs by luciferase reporter gene assay relative to control; assay type: cell-based; conditions: HEK293T cells transfected with human LXRalpha, read-out: FC
T3 sequence (Q13133 whole entry): T2 sequence (whole entry)

3T3-L1 [12] = assay: Anti-adipogenic activity in mouse 3T3L1 preadipocytes assessed as decrease in triglyceride accumulation; assay type: functional, cell-based
[13] = biological target: Liver X receptor (Homo sapiens) (UniProt Q13133+P55055); assay: Agonist activity at LXR in human HepG2 cells assessed as increase in ABCA1 mRNA expression at 10 uM incubated for 24 hrs by qPCR analysis; assay type: cell-based
Liver X receptor (Homo sapiens), sequence (P55055 whole entry, looked up, one chain of several): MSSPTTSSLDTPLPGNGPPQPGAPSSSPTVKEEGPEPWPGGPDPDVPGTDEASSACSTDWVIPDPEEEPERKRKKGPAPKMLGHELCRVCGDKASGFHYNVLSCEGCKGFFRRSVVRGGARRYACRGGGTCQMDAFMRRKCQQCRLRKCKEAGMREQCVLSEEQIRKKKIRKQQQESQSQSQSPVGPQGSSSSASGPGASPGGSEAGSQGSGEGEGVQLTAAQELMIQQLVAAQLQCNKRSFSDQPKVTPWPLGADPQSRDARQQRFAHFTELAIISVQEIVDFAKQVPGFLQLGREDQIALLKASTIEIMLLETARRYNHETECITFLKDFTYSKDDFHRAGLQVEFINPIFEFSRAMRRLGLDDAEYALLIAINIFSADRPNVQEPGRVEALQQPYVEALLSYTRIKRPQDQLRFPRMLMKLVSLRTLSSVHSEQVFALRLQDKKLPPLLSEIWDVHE

HEK-293T = assay: Cytotoxicity against HEK293T cells assessed as reduction in cell viability at […] incubated for 24 hrs by MTT assay; assay type: cell-based; conditions: human
PBMC = assay: Anti-atherosclerotic activity in C57BL/6 mouse PBMC assessed as inhibition of ox-LDL induced lipid accumulation at 10 uM incubated for 48 hrs by ORO staining based microscopic analysis; assay type: functional, cell-based
RAW264.7 [14] = assay: Cytotoxicity against mouse RAW264.7 cells assessed as reduction in cell viability at 2 to 50 µM incubated for 24 hrs by MTT assay; assay type: cell-based; conditions: raw264.7, 24 h
[15] = Agonist activity at LXR in mouse 3T3L1 preadipocytes assessed as increase in sREBP-1c mRNA expression at 10 uM by qPCR analysis; assay type: cell-based
HepG2 [16] = assay: Cytotoxicity against human HepG2 cells assessed as reduction in cell viability at 2 to 50 uM incubated for 24 hrs by MTT assay; assay type: cell-based; conditions: hepg2, 24 h

SMILES	Activity (HepG2 [1])	inhibition (RAW264.7 [2])	Activity (3T3-L1 [3])	Ratio [4]	Activity (Mus musculus)	Activity (3T3-L1 [5])	Activity (RAW264.7 [6])	Activity [7]	Activity (HepG2 [8])	fold change (FC) [9]	Activity [10]	fold induction at 20 h, 10 µM [11]	Activity (3T3-L1 [12])	Activity [13]	Activity (HEK-293T)	inhibition (PBMC)	Activity (RAW264.7 [14])	Activity [15]	Activity (HepG2 [16])
CC(C)C(=O)CC[C@@H](C)[C@H]1CC[C@H]2[C@@H]3CC=C4C[C@@H](O)CC[C@]4(C)[C@H]3CC[C@]12C	Non-Toxic	Active	Active	1.63	Active	Non-Toxic	Active	Active	Active	3.85	inactive	2.36	Active	Active	Non-Toxic	Active	Non-Toxic	Not Active	Non-Toxic
CC(=O)O[C@H]1CC[C@@]2(C)C(=CC[C@H]3[C@@H]4CC[C@H]([C@H](C)CCC(=O)C(C)C)[C@@]4(C)CC[C@@H]32)C1				1.14						3		2.63			Non-Toxic				
